Measurements as given in PMC9848351, “Discovery of new pyridine-quinoline hybrids as competitive and non-competitive PIM-1 kinase inhibitors with apoptosis induction and caspase 3/7 activation capabilities” (Journal of Enzyme Inhibition and Medicinal Chemistry, 2023).

Columns and labels:
[1] = system: prostate cancer cell line (PC-3); assay: MTT anticancer activity, PC-3; type: cell-based, human; conditions: Homo sapiens, 72 h, PC-3, 72 h, mean ± SEM
Summary of the method: (§1)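 Cells seeded at 5x10^3/well (Caco-2 in DMEM, others in RPMI-1640, 10% FBS) and exposed to serial compound concentrations for 72 h at 37 °C, 5% CO2, starting 24 h after seeding. MTT (3 h, 37 °C) read at 570 nm after DMSO solubilisation; IC50 calculated from viability.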

[2] = system: normal human lung fibroblast Wi-38 cell line; assay: MTT cytotoxicity on normal cells; type: cell-based; conditions: for EC50 / IC50: Homo sapiens; for EC50 / Wi-38 EC100: Wi-38, 72 h, MTT, mean ± SEM; for EC50: 50% cell viability; for IC50: Wi-38, MTT, read-out: IC50 on human lung fibroblasts (Wi-38); for Wi-38 EC100: safe dose, 100% cell viability
Summary of the method: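 Wi-38 fibroblasts in DMEM with 10% FBS were seeded at 5x10^3 cells/well, left 24 h to attach, then exposed to serial compound concentrations for 72 h at 37 °C, 5% CO2. MTT was added for 3 h, formazan dissolved in DMSO and absorbance read at 570 nm. IC50 and EC100 (safe dose) were estimated from the concentration series.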

HepG-2 = assay: Flow cytometric annexin V/PI analysis of apoptosis, HepG-2; type: cell-based, human; conditions: IC50 of compound, 72 h, mean ± SEM
PC-3 = assay: Flow cytometric annexin V/PI analysis of apoptosis, PC-3; type: cell-based, human; conditions: IC50 of compound, 72 h, mean ± SEM
Description: The apoptosis-dependent […] was determined by quantification of annexin-stained apoptotic cells using the FITC signal detector (FL1) against the phycoerythrin emission signal detector (FL2) (Supplementary Page S55). […]
MTT method was used for assaying cell viability 25. Twenty microliters of 5 mg/ml MTT (Sigma, USA) was added to each well and the plate was incubated at […]
37 °C for 3 h. […]
Graphpad Instat software.
Determination of the anticancer activity
Anticancer effect of the above-mentioned compounds was evaluated using four human cancer cell lines. Colon cancer cells (Caco-2) were maintained in DMEM (Lonza, USA) containing 10% FBS while myeloid leukemia cell line (NFS-60), liver cancer cell line (HepG-2) and prostate cancer cell line (PC-3) were cultured in RPMI-1640 (Lonza, USA) supplemented with 10% FBS. All cancer cells (5x10^3 cells/well) were seeded in sterile 96-well plates. After 24h, serial concentrations of the tested compounds and Dox were incubated with four cancer cell lines for 72 h at 37 °C in 5% CO2 incubator. MTT method was done as described above. The Graphpad Instat software was used for calculating the half maximal inhibitory concentration (IC50) values. […]
Flow cytometric analysis of apoptosis
Caco-2, PC-3 and NFS-60 cell lines. After trypsinization, the untreated and treated cells were incubated with annexin V/PI for 15 min. Then cells were fixed and incubated with streptavidin-fluorescein (5 µg/mL) for 15 min. The apoptosis-dependent anticancer effect was determined by quantification of annexin-stained apoptotic cells using the FITC signal detector (FL1) against the phycoerythrin emission signal detector (FL2). […]

[3] = system: myeloid leukaemia cell line (NFS-60); assay: MTT anticancer activity, NFS-60; type: cell-based; conditions: for IC50: NFS-60, 72 h, MTT, mean ± SEM; for activity against NFS-60 compared to the reference: fold versus doxorubicin IC50
Summary of the method: as §1

[4] = system: liver cancer cell line (HepG-2); assay: MTT anticancer activity, HepG-2; type: cell-based, human; conditions: for IC50: Homo sapiens, HepG2, HepG-2, 72 h, MTT, mean ± SEM; for activity against HepG-2 compared to the reference: fold versus doxorubicin IC50
Summary of the method: as §1

PIM-1 kinase = PIM-1 kinase (Homo sapiens, UniProt P11309); assay: Mechanism of PIM-1 kinase inhibition, Lineweaver–Burk double-reciprocal plot; type: biochemical; design: purchased Promega Corporation #V4032; conditions: for Vmax compared with control: Y-intercept
Chain of PIM-1 kinase (P11309 whole entry): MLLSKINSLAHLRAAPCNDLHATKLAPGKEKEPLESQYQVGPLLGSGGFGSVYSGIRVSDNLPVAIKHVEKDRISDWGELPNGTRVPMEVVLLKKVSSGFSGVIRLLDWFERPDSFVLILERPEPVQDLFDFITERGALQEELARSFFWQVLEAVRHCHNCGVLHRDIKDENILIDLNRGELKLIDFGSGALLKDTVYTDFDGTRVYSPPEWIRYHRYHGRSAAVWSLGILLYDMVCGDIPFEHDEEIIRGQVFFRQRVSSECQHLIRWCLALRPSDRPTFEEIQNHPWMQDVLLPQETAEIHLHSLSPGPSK

Compound	IC50 [1] [µM]	EC50 [2] [µM]	IC50 [2] [µM]	Wi-38 EC100 [2] [µM]	total percentage of the apoptotic cell population, HepG-2 (HepG-2) [%]	total percentage of the apoptotic cell population, PC-3 (PC-3) [%]	IC50 [3] [µM]	IC50 [4] [µM]	mechanism of PIM-1 kinase inhibition (PIM-1 kinase)	Vmax compared with control (PIM-1 kinase)	activity against NFS-60 compared to the reference [3]	activity against HepG-2 compared to the reference [4]
N#Cc1c(-c2cc3cc(Cl)ccc3nc2N2CCOCC2)cc(-c2cccc(O)c2)[nH]c1=O [5b, 4-(6-Chloro-2-morpholin-4-yl-quinolin-3-yl)-6-(3-hydroxyphenyl)-2-oxo-1,2-dihydropyridine-3-carbonitrile]	0.0261 ± 0.004	0.171 ± 0.002	> 0.099	0.048 ± 0.0001	58.9 ± 0.88	50.7 ± 0.58	0.00932 ± 0.004	0.00528 ± 0.0001	competitive inhibitors	the same Vmax in comparison with control		
COc1ccc2nc(N3CCOCC3)c(-c3cc(-c4cccc(O)c4)[nH]c(=O)c3C#N)cc2c1 [5c, 6-(3-Hydroxyphenyl)-4-(6-methoxy-2-morpholin-4-yl-quinolin-3-yl)-2-oxo-1,2-dihydropyridine-3-carbonitrile]	0.0272 ± 0.003	0.717 ± 0.002	> 0.099	0.361 ± 0.014	54.14 ± 0.42	47.26 ± 0.92	0.0181 ± 0.001	0.0076 ± 0.0001	competitive inhibitors	the same Vmax in comparison with control		
N#Cc1c(-c2cc3ccccc3[nH]c2=O)cc(-c2cccc(O)c2)[nH]c1=O [13a, 6-(3-Hydroxyphenyl)-2-oxo-4-(2-oxo-1,2-dihydroquinolin-3-yl)-1,2-dihydropyridine-3-carbonitrile]	0.02 ± 0.003	0.0255 ± 0.004		0.0145 ± 0.0001	70.59 ± 1.07	59.71 ± 0.82	0.009	0.00238	both competitive and non-competitive inhibitor	reduced in Vmax value	three-fold	twenty-one-fold more active
COc1ccc2[nH]c(=O)c(-c3cc(-c4cccc(O)c4)[nH]c(=O)c3C#N)cc2c1 [13c, 6-(3-Hydroxyphenyl)-4-(6-methoxy-2-oxo-1,2-dihydroquinolin-3-yl)-2-oxo-1,2-dihydropyridine-3-carbonitrile]	0.0225 ± 0.002	0.0348 ± 0.003		0.0242 ± 0.001	66.83 ± 1.32	57.91 ± 0.34	0.0088 ± 0.0001	0.00377 ± 0.0001			three-fold high	thirteen-fold high
N#Cc1c(-c2cc3ccccc3[nH]c2=O)cc(-c2cccc(O)c2)nc1S [14a, 6-(3-Hydroxyphenyl)-2-mercapto-4-(2-oxo-1,2-dihydroquinolin-3-yl)pyridine-3-carbonitrile]	0.0168 ± 0.0001	0.299 ± 0.004		0.134 ± 0.003	42.155 ± 0.16	56.545 ± 0.98	0.0232	0.0127	competitive inhibitors	the same Vmax in comparison with control		
